Where a name gives a salt, the structure may show the parent alone.
How the values were obtained:
Person 5 = assay: Medicinal drug use in combination with the treatment; assay type: in vivo, human; settings: Person 5, excluded after 20 weeks
Protocol: Three persons were not receiving the drinkable for self-treatment: 2, 5 and 6. […] Person 6 was excluded of toxicological consideration after 20 weeks because massive use of painkiller […] forte, 600 mg: 20 tablets per day, and was practically an abuser of medicinal drugs. Person 2 was excluded because use of sleep medicine-Alimemazin tartrate. All three drugs listed with long list of the negative by-effects. Those effects are very similar to the symptoms on the list of Canadian Criteria. Further treatment with mixture of drinkable oxalates was therefore is not considerate.

P12 = settings: P12, altogether 8 doses; cited from earlier work
[1] = tested on: healthy and ME affected persons; settings: general knowledge; cited from earlier work

Compound: CN(C)CCC[C@@]1(c2ccc(F)cc2)OCc2cc(C#N)ccc21 [Escitalopram Oxalate]
- Adverse effect in combination with mixture of drinkable oxalates (Person 5): massive diarrhea

Compound: Rituximab: Rituximab therapy given in clinical studies at Haukeland University Hospital
- Response to therapy (P12): non-responder

Compound: O=C(O)CCCCC1CCSS1 (stereo not drawn) [ALA, alpha-lipoic acid]
- Time of excretion via urine post intake [1]: 30 to 60 min

From patent US20210205244A1, “PREVENTION AND/OR TREATMENT OF CHRONIC FATIGUE SYNDROME” (BOHNE ASKØY AS, priority 2016, published 2021)
